The values below come from patent US20240317714A1, “3-[(1H-PYRAZOL-R-YL)OXY]PYRAZIN-2-AMINE COMPOUNDS AS HPK1 INHIBITOR AND USE THEREOF” (BeiGene, Ltd., priority 2020, published 2024).

Experiment [1] deals with pSLP76(S376) level in Jurkat cell line. The experiment is described as follows: Cellular pSLP76(S376) HTRF Assay. Particulars: Homo sapiens, Jurkat, Jurkat cells, 2 h compound treatment, stimulated with 0.05 μg/mL anti-human CD3 (OKT3) for 30 min. The experiment is classed as cell-based.
In experiment [2] the target is HPK1 kinase (aal-346. Life Technologies) (Homo sapiens (Human), UniProt Q92918). Description: HPK Kinase Activity Assay at 1 mM ATP (TR-FRET). The experiment is classed as biochemical. The note with it: HPK1 kinase 40 nM, 0.5 μM STK1 substrate, read-out: Enzymatic activity IC50.
Chain of HPK1 kinase (aal-346. Life Technologies) (Q92918 1-346): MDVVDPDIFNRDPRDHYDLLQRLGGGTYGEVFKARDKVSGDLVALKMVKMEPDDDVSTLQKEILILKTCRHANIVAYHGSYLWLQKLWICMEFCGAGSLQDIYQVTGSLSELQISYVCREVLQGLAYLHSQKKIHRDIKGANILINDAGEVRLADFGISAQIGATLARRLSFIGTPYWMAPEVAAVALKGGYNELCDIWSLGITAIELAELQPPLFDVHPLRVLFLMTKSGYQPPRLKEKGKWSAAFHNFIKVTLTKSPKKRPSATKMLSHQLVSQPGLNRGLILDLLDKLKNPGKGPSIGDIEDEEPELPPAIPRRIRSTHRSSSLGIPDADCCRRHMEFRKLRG

pIC50: −log10 of the molar value.

On to `Cc1cc(-c2cnc(N)c(Oc3cnn(C4CCN(C)CC4)c3)n2)cc(C(=O)NCCN(C)C)c1C` [Example A17, 5-(5-amino-6-((1-(1-methylpiperidin-4-yl)-1H-pyrazol-4-yl)oxy)pyrazin-2-yl)-N-(2-(dimethylamino)ethyl)-2,3-dimethylbenzamide], for which the results for the pIC50 in experiment [1] and in experiment [2] were 6.71 and 7.23, respectively.

`CNS(=O)(=O)c1cc(-c2cnc(N)c(Oc3cnn(C4CCN(C)CC4)c3)n2)cc(F)c1C` [Example A18, 5-(5-amino-6-((1-(1-methylpiperidin-4-yl)-1H-pyrazol-4-yl)oxy)pyrazin-2-yl)-3-fluoro-N,2-dimethylbenzenesulfonamide]: the negative-log IC50 (pIC50) (usually the IC50 on a negative log10 scale, so that one unit is a factor of ten) is 7.33 in experiment [1] and 7.00 in experiment [2].

As for `Cc1cc(-c2cnc(N)c(Oc3cnn(C4CCN(C)CC4)c3)n2)cc(C)c1CNS(C)(=O)=O` [Example A19, N-(4-(5-amino-6-((1-(1-methylpiperidin-4-yl)-1H-pyrazol-4-yl)oxy)pyrazin-2-yl)-2,6-dimethylbenzyl)methanesulfonamide], the figures for the pIC50 in experiment [1] and in experiment [2] were 7.34 and 7.36, respectively.

As for `Cc1cc(-c2cnc(N)c(Oc3cnn(C4CCN(C)CC4)c3)n2)cc(C2(NS(=O)(=O)c3ccccc3)CC2)c1` [Example A20, N-(1-(3-(5-amino-6-((1-(1-methylpiperidin-4-yl)-1H-pyrazol-4-yl)oxy)pyrazin-2-yl)-5-methylphenyl)cyclopropyl)benzenesulfonamide], the pIC50 in experiment [1] is 7.01; in experiment [2], 7.15.

Turning to `CONC(=O)c1c(C)cc(-c2cnc(N)c(Oc3cnn(C4CCN(C)CC4)c3)n2)cc1C` [Example A21, 4-(5-amino-6-((1-(1-methylpiperidin-4-yl)-1H-pyrazol-4-yl)oxy)pyrazin-2-yl)-N-methoxy-2,6-dimethylbenzamide], the negative logarithm of the IC50 (pIC50) is 6.73 in experiment [1] and 6.98 in experiment [2].

In the case of `CNc1cc(-c2cnc(N)c(Oc3cnn(C4CCN(C)CC4)c3)n2)cc(S(=O)(=O)NC)c1` [Example A22, 3-(5-amino-6-((1-(1-methylpiperidin-4-yl)-1H-pyrazol-4-yl)oxy)pyrazin-2-yl)-N-methyl-5-(methylamino)benzenesulfonamide], the pIC50 in experiment [1] was 7.42; in experiment [2], 7.85.

For the compound `CNS(=O)(=O)c1cc(-c2cnc(N)c(Oc3cnn(C4CCN(C)CC4)c3)n2)cc(N2CCCC2)c1` [Example A23, 3-(5-amino-6-((1-(1-methylpiperidin-4-yl)-1H-pyrazol-4-yl)oxy)pyrazin-2-yl)-N-methyl-5-(pyrrolidin-1-yl)benzenesulfonamide], the figures for the pIC50 in experiment [1] and in experiment [2] were 7.46 and 8.22, respectively.

On to `CNS(=O)(=O)c1cc(C)cc(-c2cnc(N)c(Oc3cnn(C4CCN(C5CC5)CC4)c3)n2)c1` [Example A24, 3-(5-amino-6-((1-(1-cyclopropylpiperidin-4-yl)-1H-pyrazol-4-yl)oxy)pyrazin-2-yl)-N,5-dimethylbenzenesulfonamide], for which the pIC50 is 6.76 in experiment [1] and 6.98 in experiment [2].

As for `Cc1cc(-c2cnc(N)c(Oc3cnn(C4CCN(C)CC4)c3)n2)cc(C2(NS(=O)(=O)CC(F)(F)F)CC2)c1` [Example A25, N-(l-(3-(5-amino-6-((1-(1-methylpiperidin-4-yl)-H-pyrazol-4-yl)oxy)pyrazin-2-yl)-5-methylphenyl)cyclopropyl)-2,2,2-trifluoroethane-1-sulfonamide], the values for the pIC50 in experiment [1] and in experiment [2] were 7.21 and 7.85, respectively.

In the case of `CNC(=O)NCc1c(C)cc(-c2cnc(N)c(Oc3cnn(C4CCN(C)CC4)c3)n2)cc1C` [Example A26, 1-(4-(5-amino-6-((1-(1-methylpiperidin-4-yl)-1H-pyrazol-4-yl)oxy)pyrazin-2-yl)-2,6-dimethylbenzyl)-3-methylurea], the pIC50 in experiment [1] is 7.09; in experiment [2], 7.52.

As to `CCN1CCC(n2cc(Oc3nc(-c4cc(C)cc(S(=O)(=O)NC)c4)cnc3N)cn2)CC1` [Example A27, 3-(5-amino-6-((1-(1-ethylpiperidin-4-yl)-1H-pyrazol-4-yl)oxy)pyrazin-2-yl)-N,5-dimethylbenzenesulfonamide], the values for the pIC50 in experiment [1] and in experiment [2] were 7.09 and 7.24, respectively.

Regarding `CNS(=O)(=O)c1cc(C)cc(-c2cnc(N)c(Oc3cnn(C4CCN(CC5COC5)CC4)c3)n2)c1` [Example A28, 3-(5-amino-6-((1-(1-(oxetan-3-ylmethyl)piperidin-4-yl)-1H-pyrazol-4-yl)oxy)pyrazin-2-yl)-N, 5-dimethylbenzenesulfonamide], the pIC50 was 7.01 in experiment [1] and 7.30 in experiment [2].

In the case of `Cc1cc(-c2cnc(N)c(Oc3cnn(C4CCN(C)CC4)c3)n2)cc(C)c1C1COC(=O)N1` (stereo not shown) [Example A29, 4-(4-(5-amino-6-((1-(1-methylpiperidin-4-yl)-1H-pyrazol-4-yl)oxy)pyrazin-2-yl)-2,6-dimethylphenyl)oxazolidin-2-one], the results for the pIC50 in experiment [1] and in experiment [2] were 7.01 and 7.68, respectively.

On to `CNS(=O)(=O)c1cc(-c2cnc(N)c(Oc3cnn(C4CCN(C)CC4)c3)n2)cc(C(C)(C)C)c1` [Example A30, 3-(5-amino-6-((1-(1-methylpiperidin-4-yl)-1H-pyrazol-4-yl)oxy)pyrazin-2-yl)-5-(tert-butyl)-N-methylbenzenesulfonamide], for which the figures for the pIC50 in experiment [1] and in experiment [2] were 6.48 and 6.95, respectively.

Turning to `Cc1cc(-c2cnc(N)c(Oc3cnn(C4CCN(C)CC4)c3)n2)cc(C)c1CNS(=O)(=O)C1CCOCC1` [Example A31, N-(4-(5-amino-6-((1-(1-methylpiperidin-4-yl)-1H-pyrazol-4-yl)oxy)pyrazin-2-yl)-2,6-dimethylbenzyl)tetrahydro-2H-pyran-4-sulfonamide], the pIC50 in experiment [1] was 7.11; in experiment [2] it was 7.47.

`Cc1cc(-c2cnc(N)c(Oc3cnn(C4CCN(C)CC4)c3)n2)cc(C)c1CNS(=O)(=O)C1CC1` [Example A32, N-(4-(5-amino-6-((1-(1-methylpiperidin-4-yl)-1H-pyrazol-4-yl)oxy)pyrazin-2-yl)-2,6-dimethylbenzyl)cyclopropanesulfonamide]: the pIC50 in experiment [1] is 7.09; in experiment [2] it was 7.52.

Regarding `Cc1cc(-c2cnc(N)c(Oc3cnn(C4CCN(C)CC4)c3)n2)cc(C(F)F)c1C(=O)NCCN(C)C` [Example A33, 4-(5-amino-6-((1-(1-methylpiperidin-4-yl)-1H-pyrazol-4-yl)oxy)pyrazin-2-yl)-2-(difluoromethyl)-N-(2-(dimethylamino)ethyl)-6-methylbenzamide], the negative-log IC50 (pIC50) in experiment [1] is 6.99; in experiment [2], 7.17.

On to `Cc1cc(-c2cnc(N)c(Oc3cnn(C4CCN(C)CC4)c3)n2)cc(C)c1C1COCC(=O)N1` (stereo not shown) [Example A35, 5-(4-(5-amino-6-((1-(1-methylpiperidin-4-yl)-1H-pyrazol-4-yl)oxy)pyrazin-2-yl)-2,6-dimethylphenyl)morpholin-3-one], for which the pIC50 in experiment [1] is 6.91; in experiment [2], 7.33.

On to `CCNC(=O)NCc1c(C)cc(-c2cnc(N)c(Oc3cnn(C4CCN(C)CC4)c3)n2)cc1C` [Example A36, 1-(4-(5-amino-6-((1-(1-methylpiperidin-4-yl)-1H-pyrazol-4-yl)oxy)pyrazin-2-yl)-2,6-dimethylbenzyl)-3-ethylurea], for which the results for the pIC50 in experiment [1] and in experiment [2] were 7.27 and 7.66, respectively.

With `Cc1cc(-c2cnc(N)c(Oc3cnn(C4CCN(C)CC4)c3)n2)cc(C)c1CNC(=O)NC1CCCC1` [Example A37, 1-(4-(5-amino-6-((1-(1-methylpiperidin-4-yl)-1H-pyrazol-4-yl)oxy)pyrazin-2-yl)-2,6-dimethylbenzyl)-3-cyclopentylurea], the values for the pIC50 in experiment [1] and in experiment [2] were 7.01 and 7.77, respectively.

Take `Cc1cc(-c2cnc(N)c(Oc3cnn(C4CCN(C)CC4)c3)n2)cc(C)c1CNS(=O)(=O)c1ccccc1` [Example A38, N-(4-(5-amino-6-((1-(1-methylpiperidin-4-yl)-1H-pyrazol-4-yl)oxy)pyrazin-2-yl)-2,6-dimethylbenzyl)benzenesulfonamide]: the results for the pIC50 in experiment [1] and in experiment [2] were 6.90 and 7.43, respectively.

`COc1ccc(S(=O)(=O)NCc2c(C)cc(-c3cnc(N)c(Oc4cnn(C5CCN(C)CC5)c4)n3)cc2C)cc1` [Example A39, N-(4-(5-amino-6-((1-(1-methylpiperidin-4-yl)-1H-pyrazol-4-yl)oxy)pyrazin-2-yl)-2,6-dimethylbenzyl)-4-methoxybenzenesulfonamide]: the pIC50 in experiment [1] was 6.75; in experiment [2], 7.46.

Turning to `Cc1cc(-c2cnc(N)c(Oc3cnn(C4CCN(C)CC4)c3)n2)cc(C)c1CNS(=O)(=O)C1CCCC1` [Example A40, N-(4-(5-amino-6-((1-(1-methylpiperidin-4-yl)-1H-pyrazol-4-yl)oxy)pyrazin-2-yl)-2,6-dimethylbenzyl)cyclopentanesulfonamide], the pIC50 in experiment [1] was 6.90; in experiment [2] it was 7.48.

In the case of `CNS(=O)(=O)c1cc(-c2cnc(N)c(Oc3cnn(C4CCN(C)CC4)c3)n2)cc(N2CCCCC2)c1` [Example A41, 3-(5-amino-6-((1-(1-methylpiperidin-4-yl)-1H-pyrazol-4-yl)oxy)pyrazin-2-yl)-N-methyl-5-(piperidin-1-yl)benzenesulfonamide], the pIC50 in experiment [1] is 7.00; in experiment [2], 7.96.

As for `CNS(=O)(=O)c1cc(-c2cnc(N)c(Oc3cnn(C4CCN(C)CC4)c3)n2)cc(N2CCOCC2)c1` [Example A42, 3-(5-amino-6-((1-(1-methylpiperidin-4-yl)-1H-pyrazol-4-yl)oxy)pyrazin-2-yl)-N-methyl-5-morpholinobenzenesulfonamide], the pIC50 was 7.09 in experiment [1] and 7.72 in experiment [2].

With `CNS(=O)(=O)c1cc(-c2cnc(N)c(Oc3cnn(C4CCN(C)CC4)c3)n2)cc(N2CCC[C@H]2C)c1` [Example A43, (R)-3-(5-amino-6-((1-(1-methylpiperidin-4-yl)-1H-pyrazol-4-yl)oxy)pyrazin-2-yl)-N-methyl-5-(2-methylpyrrolidin-1-yl)benzenesulfonamide], the pIC50 was 7.59 in experiment [1] and 8.22 in experiment [2].
